This data set concerns CCRIS mutagenicity, Ames/micronucleus/aberration tests. In words: CCRIS mutagenicity studies.
The mark [1] stands for this setting: Test System: AMES SALMONELLA TYPHIMURIUM, Strain/Indicator: TA98, Metabolic Activation: NONE, Method: STANDARD PLATE.
Where [2] appears, read: Test System: AMES SALMONELLA TYPHIMURIUM, Strain/Indicator: TA100, Metabolic Activation: NONE, Method: STANDARD PLATE.
The mark [3] stands for this setting: Test System: AMES SALMONELLA TYPHIMURIUM, Strain/Indicator: TA1535, Metabolic Activation: NONE, Method: STANDARD PLATE.
[4] abbreviates: Test System: AMES SALMONELLA TYPHIMURIUM, Strain/Indicator: TA100, Metabolic Activation: S-9, Method: PREINCUBATION

The values below come from PubChem BioAssay AID1259407 (Chemical Carcinogenesis Research Information System (CCRIS), 2018).

The source made the active and inactive calls. The rule behind the calls is not given here.

Regarding `CCSCCSP(=O)(OC)OC`, the mutagenic call by setting is: (Test System: AMES SALMONELLA TYPHIMURIUM, Strain/Indicator: TA97A, Metabolic Activation: NONE, Method: STANDARD PLATE) “inactive; negative”; (Test System: AMES SALMONELLA TYPHIMURIUM, Strain/Indicator: TA97A, Metabolic Activation: PLANT, HOMOGENATE, S-14, Method: STANDARD PLATE) “inactive; negative”; (Test System: AMES SALMONELLA TYPHIMURIUM, Strain/Indicator: TA97A, Metabolic Activation: S-9, Method: STANDARD PLATE) “inactive; negative”; under setting [1], “inactive; negative”; (Test System: AMES SALMONELLA TYPHIMURIUM, Strain/Indicator: TA98, Metabolic Activation: PLANT, HOMOGENATE, S-14, Method: STANDARD PLATE) “inactive; negative”; (Test System: AMES SALMONELLA TYPHIMURIUM, Strain/Indicator: TA98, Metabolic Activation: RAT, LIVER, S-9, Method: STANDARD PLATE) “inactive; negative”. Besides, the mutagenic call runs as follows: (Test System: AMES SALMONELLA TYPHIMURIUM, Strain/Indicator: TA98, Metabolic Activation: S-9, Method: STANDARD PLATE) “inactive; negative”; (Test System: AMES SALMONELLA TYPHIMURIUM, Strain/Indicator: TA98, Metabolic Activation: WHEAT SEEDLING, S-14, Method: STANDARD PLATE) “inactive; negative”; under setting [2], “inactive; negative”; (Test System: AMES SALMONELLA TYPHIMURIUM, Strain/Indicator: TA100, Metabolic Activation: PLANT, HOMOGENATE, S-14, Method: STANDARD PLATE) “inactive; negative”; (Test System: AMES SALMONELLA TYPHIMURIUM, Strain/Indicator: TA100, Metabolic Activation: S-9, Method: STANDARD PLATE) “inactive; negative”; (Test System: AMES SALMONELLA TYPHIMURIUM, Strain/Indicator: TA102, Metabolic Activation: NONE, Method: STANDARD PLATE) “inactive; negative”. Also, the mutagenic call runs as follows: (Test System: AMES SALMONELLA TYPHIMURIUM, Strain/Indicator: TA102, Metabolic Activation: RAT, LIVER, S-9, Method: STANDARD PLATE) “inactive; negative”; (Test System: AMES SALMONELLA TYPHIMURIUM, Strain/Indicator: TA102, Metabolic Activation: WHEAT SEEDLING, S-14, Method: STANDARD PLATE) “inactive; negative”; under setting [3], “inactive; negative”; (Test System: AMES SALMONELLA TYPHIMURIUM, Strain/Indicator: TA1535, Metabolic Activation: PLANT, HOMOGENATE, S-14, Method: STANDARD PLATE) “inactive; negative”; (Test System: AMES SALMONELLA TYPHIMURIUM, Strain/Indicator: TA1535, Metabolic Activation: RAT, LIVER, S-9, Method: STANDARD PLATE) “inactive; negative”; (Test System: AMES SALMONELLA TYPHIMURIUM, Strain/Indicator: TA1535, Metabolic Activation: S-9, Method: STANDARD PLATE) “inactive; negative”. Also, the mutagenic call (Test System: AMES SALMONELLA TYPHIMURIUM, Strain/Indicator: TA1535, Metabolic Activation: WHEAT SEEDLING, S-14, Method: STANDARD PLATE) is “inactive; negative”.
`Nc1cccc2cccnc12`: the mutagenic call was “active; positive” (Test System: AMES SALMONELLA TYPHIMURIUM, Strain/Indicator: TA98, Metabolic Activation: NONE, Method: PREINCUBATION); “active; positive” (Test System: AMES SALMONELLA TYPHIMURIUM, Strain/Indicator: TA98, Metabolic Activation: RAT, LIVER, S-9, KANECHLOR 500 OR PHENOBARBITAL AND BETA-NAPHTHOFLAVONE, Method: PREINCUBATION); “active; positive” (Test System: AMES SALMONELLA TYPHIMURIUM, Strain/Indicator: TA100, Metabolic Activation: NONE, Method: PREINCUBATION); “active; positive” (Test System: AMES SALMONELLA TYPHIMURIUM, Strain/Indicator: TA100, Metabolic Activation: RAT, LIVER, S-9, KANECHLOR 500 OR PHENOBARBITAL AND BETA-NAPHTHOFLAVONE, Method: PREINCUBATION); “active; positive” under setting [4].
Take `C=C1[C@@H](O)[C@@H]2O[C@]3(CC[C@H](/C=C/[C@@H](C)[C@@H]4CC(C)=C[C@@]5(O[C@H](C[C@@](C)(O)C(=O)O)CCC5O)O4)O3)CC[C@H]2O[C@@H]1[C@@H](O)C[C@H](C)[C@H]1O[C@@]2(CCCCO2)CC[C@H]1C` (some centres not stated): the mutagenic call was “active; positive” (End Point: IN VITRO MICRONUCLEUS, Test System: HUMAN PERIPHERAL LYMPHOCYTES, Metabolic Activation: NONE); “inactive; negative” (End Point: In vitro micronucleus, Test System: Chinese hamster ovary (CHO-K1) cells, Metabolic Activation: None); “active; positive” (End Point: In vitro micronucleus, Test System: Chinese hamster ovary (CHO-K1) cells, Metabolic Activation: Rat, Liver, S-9, Phenobarbital and beta-naphthoflavone); “inactive; negative” (End Point: In vitro micronucleus, Test System: Chinese hamster ovary (CHO-K1) cells, Metabolic Activation: Rat, Liver, S-9, Phenobarbital and beta-naphthoflavone, heat inactivated); “active; positive (dose-dependent increase in percentage of centromer-positive micronucle” (End Point: In vitro micronucleus, Test System: Chinese hamster ovary (CHO-K1) cells, Metabolic Activation: Rat, Liver, S-9, Phenobarbital and beta-naphthoflavone, Method: FISH (fluorescein isothiocyanate isomer 1 (FITC)-conjugated peptide nucleic acid probe)); “active; positive” (End Point: In vitro micronucleus, Test System: Human colon carcinoma Caco-2 cells, Metabolic Activation: None). The mutagenic call was “inactive; negative” (Test System: AMES SALMONELLA TYPHIMURIUM, Strain/Indicator: TA98, Metabolic Activation: S-9, Method: PREINCUBATION); “inactive; negative” under setting [4]; “active; positive” (Test System: CHINESE HAMSTER V-79, Strain/Indicator: V-79 (HGPRT)/6-THIOGUANINE, Metabolic Activation: NONE); “inactive; negative” (Test System: CHINESE HAMSTER V-79, Strain/Indicator: V-79 (HGPRT)/6-THIOGUANINE, Metabolic Activation: RAT, LIVER, HEPATOCYTES).
As to `O=[Si]=O`, the mutagenic call is “inactive; negative” under setting [1]; “inactive; negative” (Test System: AMES SALMONELLA TYPHIMURIUM, Strain/Indicator: TA98, Metabolic Activation: RAT, LIVER, S-9, AROCLOR 1254, Method: STANDARD PLATE); “inactive; negative” under setting [2]; “inactive; negative” (Test System: AMES SALMONELLA TYPHIMURIUM, Strain/Indicator: TA100, Metabolic Activation: RAT, LIVER, S-9, AROCLOR 1254, Method: STANDARD PLATE); “inactive; negative” under setting [3]; “inactive; negative” (Test System: AMES SALMONELLA TYPHIMURIUM, Strain/Indicator: TA1535, Metabolic Activation: RAT, LIVER, S-9, AROCLOR 1254, Method: STANDARD PLATE). Besides, the mutagenic call reads like this: (Test System: AMES SALMONELLA TYPHIMURIUM, Strain/Indicator: TA1537, Metabolic Activation: NONE, Method: STANDARD PLATE) “inactive; negative”; (Test System: AMES SALMONELLA TYPHIMURIUM, Strain/Indicator: TA1537, Metabolic Activation: RAT, LIVER, S-9, AROCLOR 1254, Method: STANDARD PLATE) “inactive; negative”; (Test System: AMES SALMONELLA TYPHIMURIUM, Strain/Indicator: TA1538, Metabolic Activation: NONE, Method: STANDARD PLATE) “inactive; negative”; (Test System: AMES SALMONELLA TYPHIMURIUM, Strain/Indicator: TA1538, Metabolic Activation: RAT, LIVER, S-9, AROCLOR 1254, Method: STANDARD PLATE) “inactive; negative”; (Test System: E. COLI, Strain/Indicator: WP2, Metabolic Activation: NONE, Method: STANDARD PLATE) “inactive; negative”; (Test System: E. COLI, Strain/Indicator: WP2, Metabolic Activation: RAT, LIVER, S-9, AROCLOR 1254, Method: STANDARD PLATE) “inactive; negative”. Moreover, the mutagenic call (Test System: HUMAN-HAMSTER HYBRID AL CELLS, Strain/Indicator: AL CELLS (HPRT), Metabolic Activation: NONE, Method: PREINCUBATION) was “active; positive”.
